Reference: the supplement of paper PMC12490022
± gives the uncertainty stated by the source.

tested on: ozone; assay: apparent second-order rate constant for reaction with ozone (kapp,O3) (M-1 s-1); higher = faster oxidation by ozone; conditions: pH 7; temperature: 22 C; OH radical scavenger: tBuOH 80 mM; phosphate 4 mM
Experimental: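 Apparent second-order rate constants for reaction with ozone at pH 7 were determined by multicompound competition kinetics. Mixtures of targets and competitors (10 ug/L each) were ozonated in 4 mM phosphate buffer, pH 7, with 80 mM tBuOH as OH-radical scavenger, at 22 ± 1 °C. Peak-area abatement was measured by HPLC-HRMS/MS and k was derived from ln-ln slopes against competitors with known k (R2 > 0.9, >= 10 points, slope 0.1-10). Experiments were run in triplicate on 3 days; the value is the mean over valid competitors ± SD.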

| Structure (SMILES) | apparent second-order rate constant |
| --- | --- |
| COC(=O)C(c1ccccc1Cl)N1CCc2sccc2C1 (centres undefined) [Clopidogrel] | 335000 ± 28000 |
| COC(=O)C1C(OC(=O)c2ccccc2)CC2CCC1[N+]2(C)[O-] (centres undefined) [Cocaine-N-oxide] | < 0.401 |
| COC(=O)C1C(OC(=O)c2ccccc2)CC2CCC1N2C (centres undefined) [Cocaine] | 3020 ± 260 |
| COc1ccc2c3c1OC1C(O)C=CC4C(C2)N(C)CCC341 (centres undefined) [Codeine] | 1.03e+06 ± 88000 |
| CC12CCC(=O)C=C1CCC1C2C(=O)CC2(C)C1CCC2(O)C(=O)CO (centres undefined) [Cortisone] | 436 ± 22 |
| CN1C(=O)CCC1c1cccnc1 (centres undefined) [Cotinine] | 2.9 ± 0.3 |
| CCOC(=O)c1c(COCCN)nc(C)c(C(=O)OC)c1-c1ccccc1Cl [Dehydroamlodipine] | 55 ± 2.9 |
| C#CCN(C)C(C)Cc1ccccc1 (centres undefined) [Deprenyl] | 930000 ± 81000 |
| Oc1ccc(C(c2ccc(O)cc2)c2ccccn2)cc1 [Desacetylbisacodyl] | 2.25e+06 ± 220000 |
| COc1ccc([C@@H]2Sc3ccccc3N(CCN(C)C)C(=O)[C@@H]2O)cc1 [Desacetyldiltiazem] | 668000 ± 57000 |
| NCC(O)COc1ccc(CC(N)=O)cc1 (centres undefined) [Desisopropylatenolol] | 134 ± 7.4 |
| Clc1ccc2c(c1)CCc1cccnc1C2=C1CCNCC1 [Desloratadine] | 1960 ± 160 |
| CC(=O)Nc1c(I)c(C(=O)NCC(O)CO)c(I)c(C(=O)N(C)CC(O)CO)c1I (centres undefined) [Desmethoxyiopromide] | 1.74 ± 0.19 |
| CCC1OC(=O)C(C)C(O)C(C)C(OC2OC(C)CC(N(C)C)C2O)C(C)(O)CC(C)CN(C)C(C)C(O)C1(C)O (centres undefined) [Desosaminylazithromycin] | 239000 ± 8000 |
| COc1ccc2c(c1)C13CCCCC1C(C2)N(C)CC3 (centres undefined) [Dextromethorphan] | 5580 ± 96 |
| CN1CCC23CCCCC2C1Cc1ccc(O)cc13 (centres undefined) [Dextrorphan] | 1.87e+06 ± 170000 |
| CC(=O)Nc1c(I)c(NC(C)=O)c(I)c(C(=O)O)c1I [Diatrizoate] | 230 ± 30 |
| O=C(O)c1ccccc1Nc1c(Cl)cccc1Cl [Diclofenac carboxylic acid] | 815000 ± 110000 |
| O=C(O)Cc1ccccc1Nc1c(Cl)cccc1Cl [Diclofenac] | 830000 ± 71000 |
| O=c1nc[nH]c2c1ncn2C1CCC(CO)O1 (centres undefined) [Didanosine] | 4.5 ± 0.5 |
| CC(NC(C)(C)C)C(O)c1cccc(Cl)c1 (centres undefined) [Dihydrobupropion] | 162 ± 8.9 |
| COc1ccc(C2Sc3ccccc3N(CCN(C)C)C(=O)C2OC(C)=O)cc1 (centres undefined) [Diltiazem] | 735000 ± 67000 |
| CC(=O)N(C)N(C(=O)C(=O)N(C)C)c1ccccc1 [Dioxypyramidon (AMDOPH)] | < 0.401 |
| C[N+](C)(CCOC(c1ccccc1)c1ccccc1)C1OC(C(=O)[O-])C(O)C(O)C1O (centres undefined) [Diphenhydramine-N-glucuronide] | 3.6 ± 0.4 |
| CN(C)CCOC(c1ccccc1)c1ccccc1 [Diphenhydramine] | 5500 ± 140 |

| Structure (SMILES) | apparent second-order rate constant |
| --- | --- |
| Nc1nc(=O)n(C2CSC(CO)O2)cc1F (centres undefined) [Emtricitabine] | 79000 ± 70000 |
| CNC(C)C(O)c1ccccc1 (centres undefined) [Ephedrine] | 1720 ± 150 |
| CCCCc1ncc(C=C(Cc2cccs2)C(=O)O)n1Cc1ccc(C(=O)O)cc1 [Eprosartan] | 1.57e+06 ± 140000 |
| O=C1CC(c2ccc(O)c(O)c2)Oc2cc(O)cc(O)c21 (centres undefined) [Eriodictyol] | 1.8e+07 ± 4e+06 |
| CC(C)OC(=O)C(C)(C)Oc1ccc(C(=O)c2ccc(Cl)cc2)cc1 [Fenofibrate] | 1.27 ± 0.17 |
| CC(C)(Oc1ccc(C(=O)c2ccc(Cl)cc2)cc1)C(=O)O [Fenofibric acid] | 2.8 ± 0.3 |
| CC(C)(C(=O)O)c1ccc(C(O)CCC[N+]2([O-])CCC(C(O)(c3ccccc3)c3ccccc3)CC2)cc1 (centres undefined) [Fexofenadine-N-oxide] | 11.9 ± 1.3 |
| CC(C)(C(=O)O)c1ccc(C(O)CCCN2CCC(C(O)(c3ccccc3)c3ccccc3)CC2)cc1 (centres undefined) [Fexofenadine] | 2950 ± 260 |
| CN(C=O)CCC(Oc1ccc(C(F)(F)F)cc1)c1ccccc1 (centres undefined) [Fluoxetine formamide] | 2.7 ± 0.3 |
| CNCCC(Oc1ccc(C(F)(F)F)cc1)c1ccccc1 (centres undefined) [Fluoxetine] | 1720 ± 50 |
| O=C1CC2(CCCCC2)CN1 [Gabapentin-lactam] | 1.51 ± 0.16 |
| NCC1(CC(=O)O)CCCCC1 [Gabapentin] | 11.4 ± 1.2 |
| Nc1ccn(C2OC(CO)C(O)C2(F)F)c(=O)n1 (centres undefined) [Gemcitabine] | 390 ± 30 |
| COc1ccc(C2CC(=O)c3c(O)cc(O)cc3O2)cc1O (centres undefined) [Hesperitin] | 3.3e+07 ± 7e+06 |
| NS(=O)(=O)c1cc2c(cc1Cl)NCNS2(=O)=O [Hydrochlorothiazide] | 3000 ± 300 |
| CC12CCC(=O)C=C1CCC1C2C(O)CC2(C)C1CCC2(O)C(=O)CO (centres undefined) [Hydrocortisone] | 420 ± 25 |
| CC(NC(C)(C)CO)C(=O)c1cccc(Cl)c1 (centres undefined) [Hydroxybupropion] | 3630 ± 310 |
| CC(C)NC(=O)NS(=O)(=O)c1cnccc1Nc1cccc(CO)c1 [Hydroxytorasemide] | 850 ± 70 |
| C1=Cc2ccccc2Nc2ccccc21 [Iminostilbene] | 7.6e+07 ± 1.7e+07 |
| COc1ccc2c(c1)c(CC(=O)O)c(C)n2C(=O)c1ccc(Cl)cc1 [Indomethacin] | 5.15e+06 ± 670000 |
| COCC(=O)Nc1c(I)c(C(=O)NCC(O)CO)c(I)c(C(=O)N(C)CC(O)CO)c1I (centres undefined) [Iopromide] | 2.14 ± 0.23 |
| CNC1(c2ccccc2Cl)CCCCC1=O (centres undefined) [Ketamine] | 10400 ± 1000 |
| CC(C(=O)O)c1cccc(C(=O)c2ccccc2)c1 (centres undefined) [Ketoprofen] | 0.529 ± 0.016 |
| Nc1ccn([C@@H]2CS[C@H](CO)O2)c(=O)n1 [Lamivudine] | 61000 ± 14000 |
| Nc1nc(N)[n+]([C@@H]2O[C@H](C(=O)O)[C@@H](O)[C@H](O)[C@H]2O)nc1-c1cccc(Cl)c1Cl [Lamotrigine-N2-glucuronide] | 371 ± 20 |

| Structure (SMILES) | apparent second-order rate constant |
| --- | --- |
| Nc1nnc(-c2cccc(Cl)c2Cl)c(N)n1 [Lamotrigine] | 17.1 ± 1.2 |
| CCC(C(=O)O)N1CCCC1=O (centres undefined) [Levetiracetam acid] | 0.66 ± 0.08 |
| CCC(C(N)=O)N1CCCC1=O (centres undefined) [Levetiracetam] | 0.81 ± 0.09 |
| NC(=O)N1c2ccccc2CC(O)c2ccccc21 (centres undefined) [Licarbazepine] | 10.9 ± 1.2 |
| CCNCC(=O)Nc1c(C)cccc1C [Lidocaine-N-desethyl] | 17000 ± 1700 |
| CC[N+]([O-])(CC)CC(=O)Nc1c(C)cccc1C [Lidocaine-N-oxide] | 10.9 ± 1.2 |
| CCN(CC)CC(=O)Nc1c(C)cccc1C [Lidocaine] | 185000 ± 17000 |
| CCCCc1nc(Cl)c(CO)n1Cc1ccc(-c2ccccc2-c2nn[nH]n2)cc1 [Losartan] | 198000 ± 16000 |
| Cc1cccc(Nc2ccccc2C(=O)O)c1C [Mefenamic acid] | 1.12e+06 ± 80000 |
| CCC(=O)C(CC(C)N(C)C)(c1ccccc1)c1ccccc1 (centres undefined) [Methadone] | 4250 ± 360 |
| COC(=O)C(c1ccccc1)C1CCCCN1 (centres undefined) [Methylphenidate] | 4300 ± 360 |
| CC1CC2C(C(O)CC3(C)C2CCC3(O)C(=O)CO)C2(C)C=CC(=O)C=C12 (centres undefined) [Methylprednisolone] | 87 ± 4.5 |
| C[N+]1([O-])CCN2c3ccccc3Cc3ccccc3C2C1 (centres undefined) [Mianserin-N-oxide] | 295000 ± 26000 |
| CN1CCN2c3ccccc3Cc3ccccc3C2C1 (centres undefined) [Mianserin] | 1.94e+06 ± 100000 |
| CN1CCN2c3ncccc3Cc3ccccc3C2C1 (centres undefined) [Mirtazapine] | 957000 ± 81000 |
| CN1CCC23c4c5ccc(O)c4OC2C(O)C=CC3C1C5 (centres undefined) [Morphine] | 3.8e+07 ± 8e+06 |
| COc1c(C)c2c(c(O)c1CC=C(C)CCC(=O)O)C(=O)OC2 [Mycophenolic acid] | 7.2e+07 ± 1.5e+07 |
| CC(=O)Nc1ccc(S(=O)(=O)Nc2ncccn2)cc1 [N4-Acetylsulfadiazine] | 89 ± 4.9 |
| COc1cc(OC)nc(NS(=O)(=O)c2ccc(NC(C)=O)cc2)n1 [N4-Acetylsulfadimethoxine] | 337000 ± 28000 |
| CC(=O)Nc1ccc(S(=O)(=O)Nc2nc(C)cc(C)n2)cc1 [N4-Acetylsulfamethazine] | 815 ± 43 |
| CC(=O)Nc1ccc(S(=O)(=O)Nc2ccccn2)cc1 [N4-Acetylsulfapyridine] | 947 ± 280 |
| CC(=O)Nc1ccc(S(=O)(=O)Nc2nccs2)cc1 [N4-Acetylsulfathiazole] | 1.02e+07 ± 1.2e+06 |
| CNCC(c1ccc(O)cc1)C1(O)CCCCC1 (centres undefined) [N,O-Didesmethylvenlafaxine] | 1.99e+06 ± 120000 |
| CCC1OC(=O)C(C)C(OC2CC(C)(OC)C(O)C(C)O2)C(C)C(OC2OC(C)CC(NC)C2O)C(C)(O)CC(C)CN(C)C(C)C(O)C1(C)O (centres undefined) [N-Desmethylazithromycin] | 10300 ± 980 |
